Series [1] has as its target T1, human COX-2 (Homo sapiens, UniProt P35354).
T1 construct: purchased Biovision, Zurich, Switzerland
T1 sequence (P35354 18-604): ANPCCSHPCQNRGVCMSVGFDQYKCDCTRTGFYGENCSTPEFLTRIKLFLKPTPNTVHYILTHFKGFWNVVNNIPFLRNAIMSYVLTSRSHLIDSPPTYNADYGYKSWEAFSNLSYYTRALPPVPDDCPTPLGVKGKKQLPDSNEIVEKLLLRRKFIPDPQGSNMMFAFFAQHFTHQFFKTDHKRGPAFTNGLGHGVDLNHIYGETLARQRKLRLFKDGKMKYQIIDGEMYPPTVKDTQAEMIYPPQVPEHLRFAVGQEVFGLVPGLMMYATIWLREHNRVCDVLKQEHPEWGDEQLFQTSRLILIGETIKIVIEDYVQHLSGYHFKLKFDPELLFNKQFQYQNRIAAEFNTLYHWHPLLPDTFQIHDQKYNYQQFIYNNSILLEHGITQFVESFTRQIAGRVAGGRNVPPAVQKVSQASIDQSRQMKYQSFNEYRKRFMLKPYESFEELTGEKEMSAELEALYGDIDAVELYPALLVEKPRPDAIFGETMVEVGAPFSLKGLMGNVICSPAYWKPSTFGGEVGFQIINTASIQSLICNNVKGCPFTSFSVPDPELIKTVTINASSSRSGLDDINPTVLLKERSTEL
Kind of series: COX-2 inhibition assay (fluorometric inhibitor screening kit). Format: biochemical. The settings on record: for inhibition at 10 µM / inhibition at 1 µM / inhibition at 0.1 µM / inhibition at 0.01 µM / inhibition at 0.001 µM: read-out: COX-2 Inhibition (%); for IC50: human COX-2 assay kit, three experiments; for fold more potent than Nimesulide (COX-2 IC50): versus Nimesulide. From the text: Fluorometric inhibitor screening kits (Biovision, Zurich, Switzerland) were utilized for the COX-2 enzyme inhibition test, as described before.

The subject of series [2] is MCF7 cells (breast carcinoma). Kind of series: MTT cytotoxicity assay, MCF7. The settings on record: for IC50: Homo sapiens, MCF7, 24 h, read-out: Cytotoxicity IC50 MCF7; for fold more cytotoxic than doxorubicin, MCF7: versus doxorubicin. On the technique in general: Tetrazolium assays rely on reduction of a dye to a coloured formazan, in cell work by metabolically active cells.
Method: (§1) Breast carcinoma (MCF-7), renal cell carcinoma (A498), lung cancer (A549), and liver carcinoma (HepG2) cell lines, in addition to non-tumorigenic WI-38 cell lines, were collected from the American Type Culture Collection. The cells were grown in DMEM (Invitrogen/Life Technologies) containing 1% penicillin-streptomycin, 10 µg/mL of insulin (Sigma), and 10% FBS (Hyclone).
(§2) To check the possible cellular toxicity, synthesized compounds were subjected to the MTT [3-(4,5-dimethylthiazol-2-yl)-2,5-diphenyltetrazolium bromide] assay against the MCF7, A549, A498, and HepG2 cell lines. […] Later, 2.0–3.0 mL of Trypsin EDTA solution was added into the flask containing the cell layers for 5–15 min to disperse the cell layer, which was observed through an inverted microscope. By gently pipetting, aspirated cells were added into a 6.0–8.0 mL growth medium. […] An amount of 20 μL of a 5-mg/mL MTT solution was applied after a 24-h drug-treatment period, and it was incubated for 4 h. To dissolve the produced purple formazan, each well received 100 μL of dimethyl sulfoxide (DMSO).

For series [3], the system named is A549 cells (non-small-cell lung cancer). Kind of series: MTT cytotoxicity assay, A549. The following applies: for IC50: Homo sapiens, A549, 24 h, read-out: Cytotoxicity IC50 A549.
Method: as §1, §2
For series [4], the system named is A498 cells (renal carcinoma). Briefly: MTT cytotoxicity assay, A498. The settings on record: for IC50: Homo sapiens, A498, 24 h, read-out: Cytotoxicity IC50 A498; for fold more cytotoxic than doxorubicin, A498: versus doxorubicin.
Method: as §1, §2
Series [5] has as its system HepG2 cells (liver carcinoma). Kind of series: MTT cytotoxicity assay, HepG2. The settings on record: for IC50: Homo sapiens, HepG2, 24 h, read-out: Cytotoxicity IC50 HepG2.
Method: as §1, §2
The test system of series [6] is WI-38 cells (normal cell derived from lung tissue). Kind of series: Cytotoxicity on non-tumorigenic WI-38 cell line. The settings on record: Homo sapiens, WI-38, read-out: WI-38 IC50.
Method: as §1, §2
[7] abbreviates: 10^−5 M, mean of three experiments ± SD.
The mark [8] stands for this setting: 10^−6 M, mean of three experiments ± SD.
Setting [9] is: 10^−7 M, mean of three experiments ± SD.
The mark [10] stands for this setting: 10^−8 M, mean of three experiments ± SD.
The mark [11] stands for this setting: 10^−9 M, mean of three experiments ± SD.

Each structure is given as a SMILES string. Read-outs that look alike come from different tables or passages of the source.

As a reminder, the inhibition is the share of the control response that was lost under treatment. The term IC50 denotes the point on the concentration scale where inhibition reaches its midpoint. Broadly, the melting point is the temperature of the solid-liquid transition. In turn, `COc1ccc(-c2nc(NS(=O)(=O)c3ccc(C)cc3)nc(OC)c2C#N)cc1` [Compound 5b, N-(5-Cyano-4-methoxy-6-(4-methoxyphenyl)pyrimidin-2-yl)-4-methylbenzene-sulfonamide] registered a melting point of 283 to 285 °C. In addition, the inhibition at 10 µM in series [1] (setting [7]) turned out to be 40.2 ± 0.58%. Further, the inhibition at 1 µM in series [1] (setting [8]) came to 36.2 ± 0.44%. Moreover, the inhibition at 0.1 µM in series [1] (setting [9]) is 24.7 ± 0.31%. Moreover, in series [1] (setting [10]), the inhibition at 0.01 µM is 75.2 ± 1.11%. Besides, the inhibition at 0.001 µM in series [1] (setting [11]) is 59.5 ± 1.04%. Moreover, in series [1], the IC50 was 180 ± 10 nM and the “fold more potent than Nimesulide (COX-2 IC50)” value was roughly 9.3 fold. For the same compound, in series [2], the half-inhibitory concentration (IC50) is 2 ± 0.05 nM and the “fold more cytotoxic than doxorubicin, MCF7” value is recorded as 4.5 fold. Moreover, the half-maximal inhibitory concentration (IC50) in series [3] is 3 ± 0.07 nM. In addition, in series [3] (versus doxorubicin), the “fold more cytotoxic than doxorubicin, A549” value is 4.3 fold. Besides, in series [4], the IC50 came out at 1 ± 0.05 nM and the “fold more cytotoxic than doxorubicin, A498” value was determined as 7 fold. For the same compound, the IC50 in series [5] stood at 12 ± 0.38 nM. Also, the “fold more cytotoxic than doxorubicin, HepG2” value in series [5] (versus doxorubicin) stood at 2.1 fold. Besides, the IC50 in series [6] came to 89600 ± 2750 nM.

With `COc1ccc(-c2nc(NS(=O)(=O)c3ccc(C(C)(C)C)cc3)nc(OC)c2C#N)cc1` [Compound 5c, 4-Tert-Butyl-N-(5-cyano-4-methoxy-6-(4-methoxyphenyl)pyrimidin-2-yl)benzene sulfonamide], the melting point was in the range of 276 to 278 °C. In addition, the inhibition at 10 µM in series [1] (setting [7]) was found to be 42.1 ± 0.93%. For the same compound, in series [1] (setting [8]), the inhibition at 1 µM was 28.7 ± 0.51%. Further, the inhibition at 0.1 µM in series [1] (setting [9]) was determined as 20.3 ± 0.52%. Also, the inhibition at 0.01 µM in series [1] (setting [10]) stood at 73.2 ± 1.21%. Also, in series [1] (setting [11]), the inhibition at 0.001 µM came to 64.3 ± 1.05%. This compound showed a 50% inhibitory concentration (IC50) in series [1] of 260 ± 10 nM.

`COc1ccc(-c2nc(NCc3nc4ccccc4s3)nc(OC)c2C#N)cc1` [Compound 3c, 2-(Benzo[d]thiazol-2-ylmethylamino)-4-methoxy-6-(4-methoxyphenyl)pyrimidine-5-carbonitrile]: the melting point is greater than 300 °C. Moreover, the inhibition at 10 µM in series [1] (setting [7]) worked out at 74.3 ± 1.03%. The inhibition at 1 µM in series [1] (setting [8]) was 57.1 ± 0.92%. In addition, the inhibition at 0.1 µM in series [1] (setting [9]) is 37.6 ± 0.6%. In series [1] (setting [10]), the inhibition at 0.01 µM amounted to 32.5 ± 0.53%. Moreover, the inhibition at 0.001 µM in series [1] (setting [11]) amounted to 21 ± 0.4%. For the same compound, the IC50 in series [1] turned out to be 290 ± 10 nM.

As to `COc1ccc(-c2nc(NS(=O)(=O)c3ccccc3)nc(OC)c2C#N)cc1` [Compound 5a, N-(5-Cyano-4-methoxy-6-(4-methoxyphenyl)pyrimidin-2-yl)benzenesulfonamide], the melting point fell in the range of 241 to 243 °C. For the same compound, the inhibition at 10 µM in series [1] (setting [7]) came to 40.1 ± 0.57%. Also, in series [1] (setting [8]), the inhibition at 1 µM was found to be 30.2 ± 0.49%. Besides, the inhibition at 0.1 µM in series [1] (setting [9]) is 23.6 ± 0.51%. For the same compound, the inhibition at 0.01 µM in series [1] (setting [10]) is 72.2 ± 1.31%. In addition, in series [1] (setting [11]), the inhibition at 0.001 µM was determined as 61.3 ± 0.84%. The same compound came in with an IC50 in series [1] of 260 ± 10 nM.

`COc1ccc(-c2nc(NCc3nc4ccccc4o3)nc(OC)c2C#N)cc1` [Compound 3b, 2-(Benzo[d]oxazol-2-Ylmethylamino)-4-methoxy-6-(4-methoxyphenyl)pyrimidine-5-carbonitrile] registered a melting point greater than 300 °C. Also, the inhibition at 10 µM in series [1] (setting [7]) was 40.3 ± 0.62%. Further, the inhibition at 1 µM in series [1] (setting [8]) stood at 33.3 ± 0.77%. In series [1] (setting [9]), the inhibition at 0.1 µM worked out at 22.4 ± 0.59%. Further, the inhibition at 0.01 µM in series [1] (setting [10]) is 77.01 ± 0.03%. Also, in series [1] (setting [11]), the inhibition at 0.001 µM stood at 61.3 ± 0.96%. In series [1], the IC50 turned out to be 200 ± 10 nM and the “fold more potent than Nimesulide (COX-2 IC50)” value is “approximately 4.7 fold”. In series [2], the half-inhibitory concentration (IC50) was determined as 3 ± 0.1 nM and the “fold more cytotoxic than doxorubicin, MCF7” value is “three”. In addition, the 50% inhibitory concentration (IC50) in series [3] was found to be 19 ± 0.52 nM. Moreover, in series [4], the IC50 turned out to be 4 ± 0.15 nM and the “fold more cytotoxic than doxorubicin, A498” value was “two-fold”. In addition, the 50% inhibitory concentration (IC50) in series [5] turned out to be 22 ± 0.62 nM. In addition, the IC50 in series [6] turned out to be 94700 ± 2500 nM.

Regarding `CS(=O)(=O)Nc1ccc([N+](=O)[O-])cc1Oc1ccccc1` [Nimesulide, reference compound], in series [1], the inhibition at 0.001 µM is 17.1 ± 0.38%, the inhibition at 0.01 µM is 24 ± 0.42%, the inhibition at 0.1 µM amounted to 29.4 ± 0.55% and the inhibition at 1 µM was 36.4 ± 0.84%. Besides, in series [1], the inhibition at 10 µM was 69.5 ± 1.02%.

Regarding `COc1ccc(-c2nc(NCc3nc4ccccc4[nH]3)nc(OC)c2C#N)cc1` [Compound 3a, 2-((1H-Benzo[d]imidazol-2-yl)methylamino)-4-methoxy-6-(4-methoxyphenyl)pyrimidine-5-carbonitrile], the inhibition at 10 µM in series [1] (setting [7]) is 71.2 ± 1.13%. Besides, the inhibition at 1 µM in series [1] (setting [8]) came out at 62.5 ± 0.95%. In series [1] (setting [9]), the inhibition at 0.1 µM was 41.1 ± 0.55%. Besides, the inhibition at 0.01 µM in series [1] (setting [10]) was 32 ± 0.61%. Moreover, in series [1] (setting [11]), the inhibition at 0.001 µM was found to be 22.3 ± 0.45%. This compound registered an IC50 in series [1] of 230 ± 10 nM.

Take `COc1ccc(-c2nc(NCc3cc4ccccc4s3)nc(OC)c2C#N)cc1` [Compound 3d, 2-(Benzo[b]thiophen-2-ylmethylamino)-4-methoxy-6-(4-methoxyphenyl)pyrimidine-5-carbonitrile]: the melting point is greater than 300 °C. Besides, in series [1] (setting [7]), the inhibition at 10 µM is 38.3 ± 0.63%. Moreover, in series [1] (setting [8]), the inhibition at 1 µM worked out at 31.6 ± 0.54%. Also, the inhibition at 0.1 µM in series [1] (setting [9]) was determined as 21.5 ± 0.49%. The inhibition at 0.01 µM in series [1] (setting [10]) is 70.3 ± 1.11%. The inhibition at 0.001 µM in series [1] (setting [11]) is 60.4 ± 0.98%. For the same compound, the IC50 in series [1] was 340 ± 10 nM.

For the compound `COc1cccc2c1C(=O)c1c(O)c3c(c(O)c1C2=O)C[C@@](O)(C(=O)CO)C[C@@H]3O[C@H]1C[C@H](N)[C@H](O)[C@H](C)O1` [Doxorubicin, doxorubicin, reference compound], the 50% inhibitory concentration (IC50) in series [2] amounted to 9 ± 0.26 nM; in series [3], 13 ± 0.42 nM; in series [4], 7 ± 0.23 nM; in series [5], 25 ± 0.55 nM; in series [6] it was 8830 ± 90 nM.

Values taken from publication PMC9658812, “New Pyrimidine-5-Carbonitriles as COX-2 Inhibitors: Design, Synthesis, Anticancer Screening, Molecular Docking, and In Silico ADME Profile Studies” (Molecules, 2022).
